Results published in patent publication US20090010910A1, “COMPOSITIONS AND METHODS FOR DERMATOLOGICAL WOUND HEALING” (MEDIWOUND LTD., priority 2004, published 2009).

Test system: burn eschar (deep thermal burn)
Assay: In vivo eschar debridement test in swine model (radiant-heat deep thermal burn, 4-hour application, visual assessment score)
Parameters: species or system young domestic pig (Landrace×Large Whites juvenile swine)
Description: This study assessed the eschar-debriding activity of the debriding composition in vivo using an animal model of young domestic pig (Landrace×Large Whites juvenile swine) 22 Kg±2 Kg, bearing deep thermal burn. […] In order to create test conditions burns were inflicted in fully anesthetized animals, in a dorsal test area, by a radiant heat device creating wounds of about 4.5×4.5 cm^2. The treatment consisted of a 4-hour application of the debriding composition following by cleansing of the wound. Visual evaluation of the wound and extent of debridement is carried out by photographical documentation of the burn was performed before and after the debriding treatment. The results were expressed using debridement visual assessment scoring (VAS) scale of 1 to 5 as follows:
The model was a radiant-heat thermal burn in an anesthetized young domestic pig. In order to create test conditions which are in accordance with the therapeutic use of the test article, deep dermal and full thickness burns were inflicted in all animals by applying a radiant heat device to the back to cover an area of approximately 3% TBSA (4.5×4.5 cm) for each burn. A gross evaluation of the debriding activity of the test article (the amount of eschar removed) was assessed and photographically documented. […]

O=[N+]([O-])[O-].[Ag+] [AgNO3]
debridement by semi solid cake of debriding agent reconstituted with hydrating gel plus antiseptic (AgNO3 (0.5%), FIG. 1): performs debridement | difference in morphology of debrided burns between areas treated with debriding mixture comprising the antiseptic (FIG. 1, areas 10-12 (Silverol™) versus 14-15 (AgNO3), after cleaning dissolved eschar): No significant difference
